Laboratory results from ChEMBL document CHEMBL1127439, “Structure-activity relationship studies of central nervous system agents. 13. 4-[3-(Benzotriazol-1-yl)propyl]-1-(2-methoxyphenyl)piperazine, a new putative 5-HT1A receptor antagonist, and its analogs” (J Med Chem, 1994).

What was measured:
Mus musculus [1] = test: Effect on body temperature in mice at intraperitoneal dosage of 4 mg/kg, (compound administered 30 min before the test) after 45 min; type: functional
Mus musculus [2] = test: Effect on 8-OH-DPAT-induced hypothermia in mice (5 mg/kg) at intraperitoneal dosage of 8 mg/kg of compound after 15 mins; type: functional
Mus musculus [3] = test: Effect on 8-OH-DPAT-induced hypothermia in mice (5 mg/kg) at intraperitoneal dosage of 2 mg/kg of compound after 30 mins; type: functional
Mus musculus [4] = test: Effect on 8-OH-DPAT-induced hypothermia in mice (5 mg/kg) at intraperitoneal dosage of 2 mg/kg of compound after 60 mins; type: functional
Rattus norvegicus [5] = test: Tested for the induction of lower lip retraction (LLR) by the investigated compounds in rat at dosage of 2 mg/kg; type: functional
Rattus norvegicus [6] = test: Tested for the effect on 8-OH-DPAT-induced behavior in reserpine pretreated rat against forepaw treading at dosage of 1 mg/kg; type: functional
Mus musculus [7] = test: Effect on 8-OH-DPAT-induced hypothermia in mice (5 mg/kg) at intraperitoneal dosage of 4 mg/kg of compound after 60 mins; type: functional
Rattus norvegicus [8] = test: Tested for the effect on 8-OH-DPAT-induced behavior in reserpine pretreated rat against flat body posture at dosage of 16 mg/kg; type: functional
Mus musculus [9] = test: Effect on body temperature in mice at intraperitoneal dosage of 2 mg/kg, (compound administered 30 min before the test) after 45 min; type: functional
Rattus norvegicus [10] = test: Tested for the effect on 8-OH-DPAT-induced lower lip retraction (LLR) in rat at dosage of 4 mg/kg; type: functional
Rattus norvegicus [11] = species: Rattus norvegicus; test: Selectivity is the ratio between Ki values of 5-HT2 and 5-HT1A
Mus musculus [12] = test: Effect on body temperature in mice at intraperitoneal dosage of 2 mg/kg, (compound administered 30 min before the test) after 75 min; type: functional
[13] = molecular target: Serotonin 2 (5-HT2) receptor (Rattus norvegicus, UniProt P30994+P08909+P14842); test: Tested in vitro for receptor binding affinity against 5-hydroxytryptamine 2 receptor using radioligand [3H]ketanserin; type: protein assay
Rattus norvegicus [14] = test: Tested for the effect on 8-OH-DPAT-induced behavior in reserpine pretreated rat against flat body posture at dosage of 8 mg/kg; type: functional
Rattus norvegicus [15] = test: Tested for the effect on 8-OH-DPAT-induced behavior in reserpine pretreated rat against flat body posture at dosage of 4 mg/kg; type: functional
Mus musculus [16] = test: Effect on 8-OH-DPAT-induced hypothermia in mice (5 mg/kg) at intraperitoneal dosage of 2 mg/kg of compound after 45 mins; type: functional
Mus musculus [17] = test: Effect on body temperature in mice at intraperitoneal dosage of 2 mg/kg, (compound administered 30 min before the test) after 60 min; type: functional
Rattus norvegicus [18] = test: Tested for the induction of lower lip retraction (LLR) by the investigated compounds in rat at dosage of 4 mg/kg; type: functional
Rattus norvegicus [19] = test: Tested for the effect on 8-OH-DPAT-induced behavior in reserpine pretreated rat against flat body posture at dosage of 2 mg/kg; type: functional
Mus musculus [20] = test: Effect on body temperature in mice at intraperitoneal dosage of 4 mg/kg, (compound administered 30 min before the test) after 60 min; type: functional
Mus musculus [21] = test: Effect on body temperature in mice at intraperitoneal dosage of 4 mg/kg, (compound administered 30 min before the test) after 30 min; type: functional
Rattus norvegicus [22] = test: Tested for the effect on 8-OH-DPAT-induced lower lip retraction (LLR) in rat at dosage of 8 mg/kg; type: functional
Mus musculus [23] = test: Effect on body temperature in mice at intraperitoneal dosage of 8 mg/kg, (compound administered 30 min before the test) after 45 min; type: functional
Mus musculus [24] = test: Effect on body temperature in mice at intraperitoneal dosage of 4 mg/kg, (compound administered 30 min before the test) after 75 min; type: functional
Mus musculus [25] = test: Effect on 8-OH-DPAT-induced hypothermia in mice (5 mg/kg) at intraperitoneal dosage of 4 mg/kg of compound after 45 mins; type: functional
Rattus norvegicus [26] = test: Tested for the effect on 8-OH-DPAT-induced behavior in reserpine pretreated rat against forepaw treading at dosage of 2 mg/kg; type: functional
Mus musculus [27] = test: Effect on 8-OH-DPAT-induced hypothermia in mice (5 mg/kg) at intraperitoneal dosage of 4 mg/kg of compound after 15 mins; type: functional
Rattus norvegicus [28] = test: Tested for the effect on 8-OH-DPAT-induced lower lip retraction (LLR) in rat at dosage of 16 mg/kg; type: functional
Mus musculus [29] = test: Effect on body temperature in mice at intraperitoneal dosage of 8 mg/kg, (compound administered 30 min before the test) after 60 min; type: functional
Mus musculus [30] = test: Effect on body temperature in mice at intraperitoneal dosage of 2 mg/kg, (compound administered 30 min before the test) after 30 min; type: functional
Rattus norvegicus [31] = test: Tested for the induction of lower lip retraction (LLR) by the investigated compounds in rat at dosage of 8 mg/kg; type: functional
Mus musculus [32] = test: Effect on 8-OH-DPAT-induced hypothermia in mice (5 mg/kg) at intraperitoneal dosage of 4 mg/kg of compound after 30 mins; type: functional
Rattus norvegicus [33] = test: Tested for the effect on 8-OH-DPAT-induced behavior in reserpine pretreated rat against forepaw treading at dosage of 4 mg/kg; type: functional
Mus musculus [34] = test: Effect on body temperature in mice at intraperitoneal dosage of 8 mg/kg, (compound administered 30 min before the test) after 30 min; type: functional
Rattus norvegicus [35] = test: Tested for the effect on 8-OH-DPAT-induced lower lip retraction (LLR) in rat at dosage of 2 mg/kg; type: functional
[36] = molecular target: T1, 5-hydroxytryptamine receptor 1A (Rattus norvegicus, UniProt P19327); test: Tested in vitro for receptor binding affinity against 5-hydroxytryptamine 1A receptor using radioligand [3H]8-OH-DPAT
T1 sequence (P19327 whole entry): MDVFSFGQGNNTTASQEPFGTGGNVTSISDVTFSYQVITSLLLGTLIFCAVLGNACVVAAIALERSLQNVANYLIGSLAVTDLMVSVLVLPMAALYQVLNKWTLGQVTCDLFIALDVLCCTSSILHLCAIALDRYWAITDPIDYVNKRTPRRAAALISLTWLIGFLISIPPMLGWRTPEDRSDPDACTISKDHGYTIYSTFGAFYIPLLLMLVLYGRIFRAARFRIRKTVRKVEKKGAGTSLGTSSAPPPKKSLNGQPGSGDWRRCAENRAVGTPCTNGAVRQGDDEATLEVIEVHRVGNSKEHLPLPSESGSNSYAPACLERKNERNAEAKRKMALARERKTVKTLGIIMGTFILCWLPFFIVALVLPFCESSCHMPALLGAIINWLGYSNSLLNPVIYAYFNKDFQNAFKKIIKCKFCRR

Mus musculus [37] = test: Effect on 8-OH-DPAT-induced hypothermia in mice (5 mg/kg) at intraperitoneal dosage of 2 mg/kg of compound after 15 mins; type: functional
Mus musculus [38] = test: Effect on 8-OH-DPAT-induced hypothermia in mice (5 mg/kg) at intraperitoneal dosage of 8 mg/kg of compound after 60 mins; type: functional
Rattus norvegicus [39] = test: Tested for the effect on 8-OH-DPAT-induced behavior in reserpine pretreated rat against flat body posture at dosage of 1 mg/kg; type: functional
Mus musculus [40] = test: Effect on body temperature in mice at intraperitoneal dosage of 4 mg/kg, (compound administered 30 min before the test) after 90 min; type: functional
Mus musculus [41] = test: Effect on body temperature in mice at intraperitoneal dosage of 8 mg/kg, (compound administered 30 min before the test) after 90 min; type: functional
Mus musculus [42] = test: Effect on 8-OH-DPAT-induced hypothermia in mice (5 mg/kg) at intraperitoneal dosage of 8 mg/kg of compound after 30 mins; type: functional
Mus musculus [43] = test: Effect on body temperature in mice at intraperitoneal dosage of 8 mg/kg, (compound administered 30 min before the test) after 75 min; type: functional
Mus musculus [44] = test: Effect on 8-OH-DPAT-induced hypothermia in mice (5 mg/kg) at intraperitoneal dosage of 8 mg/kg of compound after 45 mins; type: functional
Rattus norvegicus [45] = test: Tested for the effect on 8-OH-DPAT-induced behavior in reserpine pretreated rat against forepaw treading at dosage of 16 mg/kg; type: functional
Rattus norvegicus [46] = test: Tested for the induction of lower lip retraction (LLR) by the investigated compounds in rat at dosage of 16 mg/kg; type: functional
Mus musculus [47] = test: Effect on body temperature in mice at intraperitoneal dosage of 2 mg/kg, (compound administered 30 min before the test) after 90 min; type: functional
Rattus norvegicus [48] = test: Tested for the effect on 8-OH-DPAT-induced behavior in reserpine pretreated rat against forepaw treading at dosage of 8 mg/kg; type: functional

**Q.** Which results are given for `COc1ccccc1N1CCN(CCCCn2nc3ccccc3n2)CC1`?
**A.** Delta t (Mus musculus [1]): 0.8 °C; Delta t (Mus musculus [2]): 2.4 °C; Delta t (Mus musculus [3]): 1.9 °C; Delta t (Mus musculus [4]): 0.9 °C; LLR score (Rattus norvegicus [5]): 0.3; Behavioral score (Rattus norvegicus [6]): 13.6; Delta t (Mus musculus [7]): 1.3 °C; Behavioral score (Rattus norvegicus [8]): 2.6; Delta t (Mus musculus [9]): 0 °C; LLR score (Rattus norvegicus [10]): 2.3; Selectivity (Rattus norvegicus [11]): 54; Delta t (Mus musculus [12]): 0.3 °C; Ki [13]: 214 nM; Behavioral score (Rattus norvegicus [14]): 5.2; Behavioral score (Rattus norvegicus [15]): 11.7; Delta t (Mus musculus [16]): 1.2 °C; Delta t (Mus musculus [17]): 0.2 °C; LLR score (Rattus norvegicus [18]): 1; Behavioral score (Rattus norvegicus [19]): 9.3; Delta t (Mus musculus [20]): 0.9 °C; Delta t (Mus musculus [21]): 0.9 °C; LLR score (Rattus norvegicus [22]): 2.4; Delta t (Mus musculus [23]): 2.5 °C; Delta t (Mus musculus [24]): 0.8 °C; Delta t (Mus musculus [25]): 1.8 °C; Behavioral score (Rattus norvegicus [26]): 5.6; Delta t (Mus musculus [27]): 2.7 °C; LLR score (Rattus norvegicus [28]): 2.4; Delta t (Mus musculus [29]): 2 °C; Delta t (Mus musculus [30]): 0.1 °C; LLR score (Rattus norvegicus [31]): 1.5; Delta t (Mus musculus [32]): 2.3 °C; Behavioral score (Rattus norvegicus [33]): 5.1; Delta t (Mus musculus [34]): 2.8 °C; LLR score (Rattus norvegicus [35]): 2.5; Ki [36]: 4 nM; Delta t (Mus musculus [37]): 2.1 °C; Delta t (Mus musculus [38]): 1.1 °C; Behavioral score (Rattus norvegicus [39]): 14.2; Delta t (Mus musculus [40]): 0.8 °C; Delta t (Mus musculus [41]): 1.4 °C; Delta t (Mus musculus [42]): 2.2 °C; Delta t (Mus musculus [43]): 2 °C; Delta t (Mus musculus [44]): 1.6 °C; Behavioral score (Rattus norvegicus [45]): 1.3; LLR score (Rattus norvegicus [46]): 1.9; Delta t (Mus musculus [47]): 0.1 °C; Behavioral score (Rattus norvegicus [48]): 2.4
